Columns and labels:
SH-SY5Y cells [1] = test: Neuroprotection against iron/ascorbate-induced toxicity, MTT; assay type: cell-based, human; settings: ferrous sulfate 5 mM and L-ascorbic acid 2.5 mM, 24 h, optimized concentration of each compound
Description: (§1) Cell viability, following treatment with the compounds, was determined using the colorimetric MTT (3-(4,5-dimethylthiazol-2-yl)-2,5-diphenyltetrazolium bromide) assay. The tested compounds (5a1-3, 5b1-3, 5c1-3) were dissolved in DMSO to produce stock solutions of 25 mM and stored at −20 °C. A concentration screening was performed for 0.5 µM to 20 µM final concentrations to choose the highest nontoxic concentration. SH-SY5Y human neuroblastoma cell line (ATCC-CRL-2266) was cultured in Dulbecco’s modified Eagle’s medium (DMEM) (Gibco-Invitrogen, Life Technologies Ltd., Waltham, MA, USA) with heat-inactivated fetal calf serum (10%), penicillin (50 U/mL) and streptomycin (50 µg/mL) at 37 °C with 5% CO2. Cells were plated at 0.15 × 10^6 cells/mL one day prior to the start of the experiment. The cells were then incubated with the appropriate concentration of the compounds for 24 h. After the incubation period, the cells were washed once with PBS and incubated with 200 µL MTT (0.5 mg/mL) for 2 h at 37 °C with 5% CO2. During this period, cellular dehydrogenase successfully metabolized MTT into formazan, which was then solubilized using 200 µL of 0.04 M HCl/isopropanol. Absorbance was measured at 570 nm.
To test whether the compounds have a protective effect against toxicity induced by Aβ1-42 or iron/ascorbate, the cells were pre-incubated for 1 h with each compound, followed by the addition of Aβ1-42 or iron/ascorbate and incubation for an additional 24 h. Aβ1-42 (Bachem, Torrance, CA, USA) was prepared in sterile water to produce a stock solution of 443 µM and added to the cells at a final concentration of 1 µM. […] All data are expressed as mean ± SEM of at least three independent experiments performed in duplicate. […]
Figure 5 Neuroprotective effect of RIV-IND compounds against cellular toxicity induced by iron/ascorbate (Fe/Asc) measured by MTT reduction ability on SH-SY5Y cells pretreated with iron/ascorbate for one hour, followed by a 24 h incubation with the optimized concentration of each compound. […]

SH-SY5Y cells [2] = test: Cell viability dose-response screening, MTT; assay type: cell-based, human
Description: as §1
The new RIV-IND hybrids were tested to determine their protective role in the toxicity induced by either Aβ1-42 peptides or iron/ascorbate. SH-SY5Y cells were incubated with a set of concentrations of each of the compounds and a dose–response curve was constructed to select the highest nontoxic concentration.
Figure 3 Dose–response screening of RIV-IND compounds 5a1-3, 5b1-3 and 5c1-3 measured by MTT reduction ability on SH-SY5Y cells treated with different concentrations of the compounds for 24 h. Results are expressed relatively to untreated cells, with the mean ± standard error of the mean (SEM) derived from three independent experiments. * p < 0.05; ** p < 0.01; *** p < 0.001 compared to untreated cells. (The dot line indicates 100% cellular viability).

[3] = target: T1, equine butyrylcholinesterase (eqBChE) (Equus caballus, UniProt P81908); test: BChE inhibition, adapted Ellman method; assay type: biochemical; settings: for SI (selectivity index): IC50 (AChE)/IC50 (BChE); for IC50: eqBChE, mean of two independent experiments ± SD, read-out: BChE Inhib IC50
T1 construct: purchased Sigma-Aldrich (Steinheim, Germany)
T1 sequence (P81908 whole entry): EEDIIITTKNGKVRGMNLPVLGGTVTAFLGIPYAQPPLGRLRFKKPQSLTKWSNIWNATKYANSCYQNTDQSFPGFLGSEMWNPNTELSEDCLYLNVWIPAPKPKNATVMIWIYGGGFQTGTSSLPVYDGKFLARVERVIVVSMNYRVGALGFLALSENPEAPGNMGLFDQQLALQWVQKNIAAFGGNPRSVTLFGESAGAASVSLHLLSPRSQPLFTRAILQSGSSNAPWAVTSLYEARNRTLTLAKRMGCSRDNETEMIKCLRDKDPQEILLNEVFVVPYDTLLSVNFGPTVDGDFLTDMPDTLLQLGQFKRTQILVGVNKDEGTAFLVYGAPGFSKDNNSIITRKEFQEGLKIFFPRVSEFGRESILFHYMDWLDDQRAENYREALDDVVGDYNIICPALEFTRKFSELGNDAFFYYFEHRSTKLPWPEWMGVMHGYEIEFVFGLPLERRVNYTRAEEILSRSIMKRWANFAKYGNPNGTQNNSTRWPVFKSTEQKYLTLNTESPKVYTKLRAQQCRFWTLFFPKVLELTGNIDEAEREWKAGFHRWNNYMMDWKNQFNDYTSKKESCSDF
Description: (§2) The enzyme inhibition of electric eel acetylcholinesterase (eeAChE) and equine butyrylcholinesterase (eqBChE) by our compounds was evaluated through an adaptation of Elmman´s method using reagents from Sigma-Aldrich (Steinheim, Germany). Stock solutions of each compound (1 mg) in MeOH (1 mL) were prepared and then working solutions for each ligand were obtained by the corresponding dilution of the stock solutions. A control measurement with 5 replicates (without ligand) and a calibration curve of 5 points with 3 replicates per point was performed. The preparation of each solution involved fixed volumes of 4-(2-hydroxyethyl)-1-piperazine-ethanesulfonic acid (HEPES) and cholinesterase (eeAChE or eqBChE) with different volumes of ligand solution, and it was left to rest for 15 min immediately after adding the cholinesterase. A blank solution containing HEPES and MeOH was also prepared at the same time. […] The slope for each calibration point (absorbance versus reaction time) was determined and the inhibition for each compound was calculated by using the following equation: %Inhibition=100−(vi/v0×100) where vi is the reaction rate (slope) for each point of the calibrate with ligand and v0 is the initial reaction rate (slope) for the control point (without ligand). […] Experiments were performed twice for each compound.

[4] = target: T2, electric eel acetylcholinesterase (eeAChE) (Electrophorus electricus, UniProt O42275); test: AChE inhibition, adapted Ellman method; assay type: biochemical; settings: mean of two independent experiments ± SD, read-out: AChE Inhib IC50
T2 construct: purchased Sigma-Aldrich (Steinheim, Germany)
T2 sequence (O42275 24-633): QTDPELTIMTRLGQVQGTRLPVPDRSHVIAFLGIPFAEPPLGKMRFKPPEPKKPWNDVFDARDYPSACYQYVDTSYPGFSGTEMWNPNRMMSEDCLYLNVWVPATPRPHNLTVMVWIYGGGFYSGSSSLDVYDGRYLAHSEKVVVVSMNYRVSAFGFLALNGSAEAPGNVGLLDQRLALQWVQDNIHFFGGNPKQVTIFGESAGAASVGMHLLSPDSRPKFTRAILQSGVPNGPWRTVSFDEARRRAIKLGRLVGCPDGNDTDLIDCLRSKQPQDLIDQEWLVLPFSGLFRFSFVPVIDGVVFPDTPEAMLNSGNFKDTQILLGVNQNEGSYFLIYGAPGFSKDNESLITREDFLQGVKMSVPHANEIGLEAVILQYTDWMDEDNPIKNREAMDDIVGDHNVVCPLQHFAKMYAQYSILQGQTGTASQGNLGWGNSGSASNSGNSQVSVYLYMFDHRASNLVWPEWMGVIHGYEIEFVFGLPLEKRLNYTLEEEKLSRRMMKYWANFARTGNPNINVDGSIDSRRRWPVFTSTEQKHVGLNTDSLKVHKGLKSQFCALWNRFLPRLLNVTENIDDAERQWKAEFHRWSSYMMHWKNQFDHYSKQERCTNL
Description: as §2

SH-SY5Y cells [5] = test: Neuroprotection against Aβ1-42-induced toxicity, MTT; assay type: cell-based, human; settings: Aβ1-42 1 µM, 24 h, optimized concentration of each compound
Description: as §1
To test whether the compounds have a protective effect against toxicity induced by Aβ1-42 or iron/ascorbate, the cells were pre-incubated for 1 h with each compound, followed by the addition of Aβ1-42 or iron/ascorbate and incubation for an additional 24 h. Aβ1-42 (Bachem, Torrance, CA, USA) was prepared in sterile water to produce a stock solution of 443 µM and added to the cells at a final concentration of 1 µM. Ferrous sulfate and L-ascorbic acid (Sigma Chemical Co, St. Louis, MO, USA), prepared in sterile water, were added to the medium together at a final concentration of 5 mM and 2.5 mM, respectively. For this assay, the optimal concentration of each compound was used to prevent cellular demise induced by Aβ1-42 or iron/ascorbate. Compound 5a1 was added to the medium at a 1 µM final concentration; compounds 5a2, 5a3, 5b1, 5b2 and 5c2 were added to the medium at a 2.5 µM final concentration; compounds 5c1 and 5c3 were added to the medium at a 5 µM final concentration; and compound 5b3 was added to the medium at a 10 µM final concentration. […] Controls were employed for each plate using untreated cells and Aβ1-42 or iron/ascorbate only. Cell reduction ability was normalized to the untreated condition. All data are expressed as mean ± SEM of at least three independent experiments performed in duplicate. Statistical analyses were performed for normality assessment using Shapiro–Wilk’s test followed by the Kruskal–Wallis test considering that normality was not verified. Post hoc analysis was performed using uncorrected Dunn’s test. A p value < 0.05 was considered statistically significant.
Figure 4 Neuroprotective effect of RIV-IND compounds against cellular toxicity induced by Aβ1-42 measured by MTT reduction ability on SH-SY5Y cells pretreated with […] for one hour, followed by a 24 h incubation with the optimized concentration of each compound. Results are expressed relatively to untreated cells, with the mean ± standard error of the mean (SEM) derived from three to seven independent experiments. * p < 0.05; ** p < 0.01; *** p < 0.001; **** p < 0.0001 compared to untreated cells. # p < 0.05 compared to Aβ1-42-treated cells. (The dot line indicates the decrease in cellular viability induced by Aβ).

For `CCN(C)C(=O)Oc1cccc(NC(=O)c2cc3cccc(O)c3[nH]2)c1` [Compound 5a3, 3-(7-Hydroxy-1H-indole-2-carboxamido)phenyl ethyl(methyl)carbamate], the “neuroprotective effect against toxicity induced by iron/ascorbate” value (SH-SY5Y cells [1]) was “also present a neuroprotective effect”, the highest nontoxic concentration (SH-SY5Y cells [2]; 24 h, screening 0.5 µM to 20 µM) was 2.5 µM and the “SI (selectivity index)” value [3] was 1.05. The IC50 [3] was 10.4 ± 0.4 µM, the IC50 [4] was 10.9 ± 0.1 µM and the “neuroprotective effect against toxicity induced by Aβ1-42” value (SH-SY5Y cells [5]) was “also present neuroprotection”.

`CCN(C)C(=O)Oc1cccc(CNC(=O)c2cc3ccccc3[nH]2)c1` [Compound 5b1, 3-((1H-indole-2-carboxamido)methyl)phenyl ethylmethylcarbamate] was tested, and the “neuroprotective effect against toxicity induced by iron/ascorbate” value (SH-SY5Y cells [1]) was “also present a neuroprotective effect”, the highest nontoxic concentration (SH-SY5Y cells [2]; when used with Aβ1-42) was 2.5 µM and the highest nontoxic concentration (SH-SY5Y cells [2]; when used with iron/ascorbate) was 1 µM. For the same molecule, the “SI (selectivity index)” value [3] was 9.4, the IC50 [3] was 8.3 ± 0.1 µM and the IC50 [4] was 78.4 ± 0.8 µM. The “neuroprotective effect against toxicity induced by Aβ1-42” value (SH-SY5Y cells [5]) was “able to rescue Aβ1-42-induced toxicity to levels that were not significantly different from untreated cells”.

Source: article PMC10892719 (Pharmaceutics, 2024)
